Earlier results as cited in patent US20060258708A1, “Method for treating Parkinson's disease and other neurological diseases” (priority 2005, published 2006).

Legend:
[1] = humans
[2] = racemic thalidomide, animals
[3] = system: tumor necrosis factor alpha production by stimulated monocytes

maximal blood concentration ([1]; 100 to 200 mg ingested): 0.9 to 1.5 mg/L | time at which maximal blood concentration is attained ([1]; 100 to 200 mg ingested): 4 to 6 h | oral absorption ([1]; orally administered): poorly absorbed
SMILES: O=C1CCC(N2C(=O)c3ccccc3C2=O)C(=O)N1 (racemic) [Thalidomide, N-phthalidoglutarimide]
toxicity in a series of animal studies [2]: has not been toxic | effect on tumor necrosis factor alpha production [3]: inhibit
